Common to all, as to assay: inhibition of tumour cell growth, NCI panel, 48 h
For test [1], the system named is HT29 colon.
Test [2] relates to COLO 205 colon.
Test [3] relates to SNB-75 CNS.
In test [4] the test system is TK-10 renal.
In test [5] the test system is SF-295 CNS.
Test [6] concerns UO-31 renal.
Test [7] concerns NCI/ADR-RES ovarian.
The subject of test [8] is OVCAR-8 ovarian.
In test [9] the test system is K-562 leukemia.

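Cultured in 96-well plates, cells were exposed to test compound for 48 hours across five concentrations. TGI marks complete inhibition of growth.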

Consider 30 compounds from PubChem BioAssay (NCI).

`Cc1nc2ccccc2cc1C[N+]12CN3CN(CN(C3)C1)C2`: the TGI in test [1] is 60.8 µM; in test [2] it was 28.8 µM; in [3], 35.6 µM; in [4] it was 63.4 µM; in [5], 54.6 µM; in test [6], 57.4 µM. The TGI was 56.3 µM in test [7], > 100 µM in test [8] and > 100 µM in [9].

Take `CN1CCN(c2c(O)c3c(c(O)c2Cl)C(=O)C=CC3=O)CC1`: the TGI was 1.38 µM in test [1]; 0.38 µM in test [2]; 3.56 µM in test [3]; 1.58 µM in test [4]; 3.22 µM in [5]; 1.22 µM in test [6]. For the same compound, the figures for the TGI in [7], in test [8] and in test [9] were 2.65 µM, 0.656 µM and 0.659 µM, respectively.

As to `COc1cnnc2c(C)c(-c3ccccc3)nn12`, the TGI in test [1], in test [2], in test [3], in test [4], in test [5] and in test [6] was > 100 µM throughout. Moreover, the TGI in test [7], in [8] and in test [9] was > 100 µM in each case.

For the compound `O=[N+]([O-])c1cc(Cl)ccc1S(=O)(=O)c1cc(Cl)cc2c1NCCC2`, the TGI in test [1], in test [2], in test [3], in test [4], in test [5] and in test [6] was > 100 µM throughout. For the same compound, the TGI in test [7], in test [8] and in [9] was > 100 µM throughout.

`Cc1nc(N)nc(N)c1N1CCN(Cc2ccccc2)CC1`: the TGI in test [1], in [2], in [3], in [4], in [5] and in test [6] was > 100 µM throughout. Also, the TGI in test [7] is > 92.6 µM; in test [8] it was > 100 µM; in test [9], > 100 µM.

`CCCC1C(C#N)(C#N)C(C#N)=C(N)C1(C)C(C)=O` (stereo not given): the TGI is > 100 µM in test [1]; > 100 µM in test [2]; 96.9 µM in test [3]; > 100 µM in test [4]; > 100 µM in test [5]; > 100 µM in [6]. Moreover, the TGI in test [7], in test [8] and in test [9] was > 100 µM throughout.

For the compound `Nc1ccc(-c2nc3cc(F)ccc3s2)cc1`, the TGI in test [1] is > 100 µM; in test [2], > 100 µM; in test [3] it was 50.7 µM; in test [4], > 93.1 µM; in test [5], > 85.7 µM; in [6] it was > 100 µM. For the same compound, the TGI in test [7], in [8] and in [9] was > 100 µM throughout.

Take `Cc1ccsc1/C=N/Nc1ccccn1`: the TGI in test [1], in test [2], in [3], in test [4], in test [5] and in [6] was > 100 µM throughout. Further, the TGI in test [7], in test [8] and in test [9] was > 100 µM in each case.

For `O=C(NC(CO)CO)c1ccc2cc(C(=O)N3CC(CCl)c4ccc([N+](=O)[O-])cc43)[nH]c2c1` (stereo not given), the TGI in test [1], in test [2], in test [3], in test [4], in [5] and in test [6] was > 100 µM in each case. Further, the TGI in test [7], in test [8] and in test [9] was > 100 µM in each case.

For `COc1cc([C@@H]2c3cc4c(cc3[C@@H](Nc3ccc(NC(=O)c5cc(NC(=O)c6cc([N+](=O)[O-])cn6C)cn5C)cc3)[C@H]3COC(=O)[C@H]23)OCO4)cc(OC)c1O`, the TGI in [1] is 98.4 µM; in test [2], 17.8 µM; in [3] it was 37 µM; in test [4], > 100 µM; in test [5], > 100 µM; in test [6], > 53 µM. Also, the TGI in test [7] was > 100 µM; in [8], 89.8 µM; in [9] it was 14.4 µM.

With `O=C1C(CN2CCCC2)CCCC1CN1CCCC1` (stereo not given), the TGI is 33.6 µM in [1]; 3.07 µM in [2]; 35.6 µM in test [3]; 5.5 µM in test [4]; > 56.4 µM in [5]; 2.31 µM in test [6]. Also, the TGI worked out at 18.9 µM in test [7], 10.5 µM in [8] and 2.27 µM in [9].

Regarding `CC(C)C(/C=C/c1ccccc1)=N\NC(=S)NN`, the TGI in test [1], in test [2], in test [3], in test [4], in test [5] and in test [6] was > 100 µM in each case. The TGI in test [7], in [8] and in [9] was > 100 µM throughout.

Consider `COc1cc(C2c3cc4c(cc3OC(N3CCOCC3)C2C)OCO4)cc(OC)c1OC(C)=O` (stereo not given), for which the TGI in test [1] was 57.9 µM; in test [2] it was 52 µM; in [3], 25.2 µM; in [4], > 100 µM; in test [5] it was 49 µM; in [6], > 100 µM. The TGI in test [7] is 30.8 µM; in test [8] it was > 100 µM; in test [9], 49.2 µM.

`O=C1CC(Cl)c2c(Cl)sc(Cl)c21` (stereo not given): the TGI in test [1] was 5.93 µM; in test [2], 3.7 µM; in test [3], 22.8 µM; in test [4] it was 4.51 µM; in test [5] it was 31.7 µM; in [6], 3.67 µM. Moreover, the results for the TGI in test [7], in [8] and in [9] were > 28.5 µM, 3.32 µM and > 100 µM, respectively.

Turning to `Cc1ccc(Nc2nc(NS(=O)(=O)c3cc(C)c(Cl)cc3S)n[nH]2)cc1`, the TGI in test [1], in [2], in test [3], in test [4], in [5] and in test [6] was > 100 µM in each case. Besides, the TGI in [7], in test [8] and in test [9] was > 100 µM each time.

`CC(CC(C)(C)[N+](C)(C)C)[N+](C)(C)C` (stereo not given): the TGI in test [1], in test [2], in test [3], in test [4], in test [5] and in test [6] was > 100 µM throughout. Moreover, the TGI in test [7], in [8] and in test [9] was > 100 µM throughout.

`CC(C)(C)OC(=O)N1C/C=C\C(=O)C2(OCCO2)c2ccccc21`: the TGI in test [1] stood at 42 µM; in test [2], 35.7 µM; in test [3], 99.2 µM; in test [4] it was 47.3 µM; in test [5], 73.9 µM; in [6], 43.1 µM. In addition, the TGI in test [7] was > 100 µM; in test [8], 86.6 µM; in [9], 57.1 µM.

Take `CC(C)(C)OC(=O)NCCNC(=O)CN(CC(=O)O)C1CCCCC1N(CC(=O)O)CC(=O)O` (stereo not given): the TGI in [1], in test [2], in [3], in test [4], in test [5] and in test [6] was > 100 µM each time. In addition, the TGI in test [7], in test [8] and in test [9] was > 100 µM each time.

As for `CCOC(=O)C1=CN(C(=O)c2ccccc2)CCC1Cc1ccccc1` (stereo not given), the TGI is 35.1 µM in test [1]; 51.9 µM in test [2]; 70.3 µM in test [3]; 75.3 µM in test [4]; > 100 µM in [5]; 77.9 µM in test [6]. For the same compound, the figures for the TGI in [7], in test [8] and in test [9] were 93 µM, 88.4 µM and 77.3 µM, respectively.

In the case of `CCOC(=O)/C=C(/C(=O)OCC)n1ccc(=O)[nH]c1=O`, the TGI in [1] was 36 µM; in test [2] it was 3.99 µM; in test [3] it was 29.2 µM; in [4], 10.5 µM; in test [5], 34.7 µM; in test [6], 27.8 µM. Moreover, the TGI worked out at 40.4 µM in test [7], 27.4 µM in [8] and 6.55 µM in [9].

With `CCOC(=O)O/N=C1/C(c2c(O)[nH]c3ccccc23)=Nc2ccccc21`, the TGI in [1] was determined as 46.7 µM; in [2], 28.8 µM; in test [3], 11.4 µM; in test [4], 24 µM; in test [5], 48.8 µM; in [6], 40.6 µM. Further, the TGI was 78.6 µM in test [7], 30.8 µM in test [8] and > 100 µM in test [9].

With `S=C1CSc2c(cnc3ccccc23)N1`, the TGI in [1], in test [2], in test [3], in test [4], in test [5] and in test [6] was > 100 µM in each case. The TGI in test [7], in [8] and in [9] was > 100 µM throughout.

For `O=C(NNCc1ccccc1O)c1ccccc1O`, the TGI in test [1] was > 100 µM; in test [2], > 100 µM; in test [3] it was > 100 µM; in [4], > 100 µM; in test [5], 17.4 µM; in test [6], 16.5 µM. The TGI in [7] was 40.4 µM; in test [8], > 100 µM; in test [9], > 100 µM.

With `OCCNc1nc2c(N3CCCC3)nc(N3CCNCC3)nc2nc1NCc1ccccc1`, the TGI in test [1] stood at 21.7 µM; in test [2] it was 24.9 µM; in [3], 26.8 µM; in test [4] it was 28.7 µM; in [5], 32.7 µM; in [6], 28.7 µM. In addition, the TGI in test [7] is > 100 µM; in [8], 30.5 µM; in test [9], 30.1 µM.

For the compound `CSc1nc(=O)c(C#N)c(-c2ccccc2)n1C1OC(COC(C)=O)C(OC(C)=O)C(OC(C)=O)C1OC(C)=O` (stereo not given), the TGI in test [1], in test [2], in test [3], in [4], in test [5] and in test [6] was > 100 µM in each case. Besides, the TGI in test [7], in [8] and in [9] was > 100 µM in each case.

As to `CC1CN=C(N(C)C(=O)Nc2ccc(Cl)c(Cl)c2)S1` (stereo not given), the TGI in test [1] was > 100 µM; in test [2], > 100 µM; in test [3], > 100 µM; in test [4], 92.5 µM; in [5] it was > 100 µM; in test [6], > 100 µM. For the same compound, the TGI in [7] is 73.2 µM; in [8], > 100 µM; in [9] it was > 100 µM.

Regarding `C=CCc1cccc2cc(C(=O)Nc3nc(C45CC6CC(CC(C6)C4)C5)cs3)c(=O)oc12`, the TGI in test [1] was > 100 µM; in test [2] it was 58.9 µM; in [3], > 100 µM; in [4] it was 89.8 µM; in test [5], 31.3 µM; in test [6] it was 25.2 µM. The TGI in [7], in [8] and in test [9] was > 100 µM each time.

Regarding `c1cn[nH]c1`, the TGI in test [1], in [2], in [3], in test [4], in test [5] and in test [6] was > 10 µM each time. For the same compound, the TGI in test [7], in test [8] and in test [9] was > 10 µM each time.

Turning to `O=C(CCC(=O)OCC1OC(O)(CC2OC(CO)C(O)C(O)C2O)C(O)C1O)OCc1ccccc1` (stereo not given), the TGI in [1], in [2], in test [3], in test [4], in test [5] and in test [6] was > 100 µM throughout. Moreover, the TGI in test [7], in test [8] and in [9] was > 100 µM each time.

As to `O=C1OC(C(O)C(O)C(O)CO)C(O)C1O` (stereo not given), the TGI in test [1], in test [2], in test [3], in test [4], in test [5] and in test [6] was > 100 µM in each case. The TGI in test [7], in test [8] and in [9] was > 100 µM in each case.
